From paper PMC10119930, “Dual Molecules Targeting 5-HT6 and GABA-A Receptors as a New Approach to Combat Depression Associated with Neuroinflammation” (ACS Chemical Neuroscience, 2023)
Where “and” joins values, the source holds several entries; their conditions need not be identical. Equal values may be shown once.

Tested on: human α1β2γ2-GABA-A receptors
Experiment: Electrophysiological studies, automated patch clamp (QPatch16X), HEK293 cells
Type: cell-based
Details: agonist mode, compound at 10 μM; current amplitude normalized to 10 μM GABA response; ±S.E.M.
Procedure: Electrophysiological studies were acquired using the QPatch16X automatic patch clamp platform (Sophion Biosciences) as described before.[42],[43] […] Before the assay, cells were detached from the culture flask by treating them with TrypLE Express solution (Life Technologies) and subsequently suspended in serum-free media. The cells were loaded into a 1.5 mL microtube on the automated electrophysiology instrument, which subsequently performed a spin-down using its built-in centrifuge. Following this, the cells were washed with Ringer’s extracellular solution. The cells were moved to the pipetting wells of a 16-channel planar patch chip plate (QPlate 16X) designed for single-use. A combined suction/voltage protocol was then applied to establish gigaseals. […] During the entire whole-cell recording, the holding potential was maintained at −90 mV. […] The intracellular solution contained 140 mM CsF, 1 mM EGTA, 5 mM CsOH, 10 mM HEPES, 20 mMNaCl (pH 7.2, 320 mOsm). […] The acquired data were examined with QPatch assay software (v5.0, Sophion Biosciences)[44] and are represented as the mean of three separated measurements performed on distinct cells. The efficacy of the tested molecules was determined by calculating the baseline-corrected ratio of the maximum current amplitudes elicited by the tested compounds and the reference agonist (T1-ATG/AG1-ATG or T2-ATG/AG1-ATG). The raw current recordings were standardized and presented as a percentage of the current amplitude evoked by the reference agonist, using the QPatch assay software (v5.0, Sophion Biosciences).

SMILES: Cc1c(OCc2ccccc2)cccc1N1CCN(CCOC(=O)CCCN)CC1.Cl.Cl [Compound 16, 1-(2-((4-Ammoniobutanoyl)oxy)ethyl)-4-(3-(benzyloxy)-2-methylphenyl)piperazin-1-ium Dichloride]
- [%] of 10 μM GABA activity: 24.7% and 24.7 ± 1.5%
